From ChEMBL document CHEMBL1201862, “PubChem BioAssay data set” (2004) come the findings set out here.

Test systems include SNB-75; UACC-257; SF-268; RPMI-8226; A498; NCI-H522; M14; HOP-62; A549; K562; TK-10; SK-MEL-5; SF-295; DLD-1; SW-620; LOX IMVI; DU-145; MDA-MB-231; T47D; MDA-MB-435.
Assay in all cases: NCI anticancer screen, dose series, 48 h

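Protocol summary: plate cells (96-well), add compound at 5 concentrations, incubate 48 h, interpolate endpoints linearly. GI50 is the concentration that inhibits growth by half.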 Calls of active or inactive are those of the source. No stated cut-off is given here; in the data, active = GI50 up to about 1.1 µM and inactive = higher.

Take `O/N=C1/C(=C/c2ccc(F)cc2)CCCC1C(NO)c1ccc(F)cc1` (stereo not drawn): the GI50 was 50.1 µM (inactive) with SNB-75; 25.4 µM (inactive) in the assay on UACC-257; 23.2 µM (inactive) in the assay on SF-268; 20.8 µM (inactive) with RPMI-8226; > 100 µM (inactive) with A498; 17.5 µM (inactive) in the assay with NCI-H522. The GI50 with M14 was 32.8 µM (inactive); in the assay on HOP-62 it was > 100 µM (inactive); in the assay with A549, 32.9 µM (inactive); with K562 it was 29.1 µM (inactive); in the assay with TK-10, 71.4 µM (inactive); with SK-MEL-5, 19 µM (inactive). In addition, the values for the GI50 in the assay on SF-295, in the assay on DLD-1 and in the assay with SW-620 were 41 µM (inactive), 65.2 µM (inactive) and 51.9 µM (inactive), respectively.
For the compound `NC(CO)c1ccccc1` (stereo not drawn), the GI50 with SNB-75, in the assay on UACC-257, in the assay with SF-268, in the assay on NCI-H522, in the assay on M14 and in the assay on HOP-62 was > 100 µM (inactive) throughout. Also, the GI50 in the assay with A549, in the assay on LOX IMVI, in the assay on TK-10, in the assay on SK-MEL-5, in the assay on SF-295 and in the assay on DLD-1 was > 100 µM (inactive) in each case. In addition, in the assay with SW-620, the GI50 was > 100 µM (inactive).
In the case of `COc1ccc2[nH]c3c(C)c4cc[n+](C)cc4c(C)c3c2c1`, the GI50 with SNB-75 was 0.228 µM (active); with UACC-257 it was 12.1 µM (inactive); in the assay with SF-268 it was 0.197 µM (active); with NCI-H522, 0.562 µM (active); with HOP-62 it was 0.621 µM (active); in the assay with LOX IMVI, 10.2 µM (inactive). For the same compound, the GI50 is 1.76 µM (inactive) in the assay with SK-MEL-5, 0.332 µM (active) in the assay with SF-295, 1.87 µM (inactive) in the assay on DLD-1 and 1.11 µM (active) in the assay on SW-620.
For `C=C(C)C(=O)O[C@@H]1C/C(C)=C\[C@H](OC(C)=O)C[C@](C)(O)/C=C2/OC(=O)C(COC(C)=O)=C21`, the GI50 in the assay on SNB-75 is 3.93 µM (inactive); in the assay with UACC-257, 1.69 µM (inactive); in the assay with SF-268, 0.668 µM (active); with DU-145 it was 2.37 µM (inactive); with RPMI-8226 it was 0.314 µM (active); with A498, 3.34 µM (inactive). The GI50 with NCI-H522 was 0.196 µM (active); in the assay on M14, 0.673 µM (active); in the assay with HOP-62, 5.66 µM (inactive); with A549, 2.95 µM (inactive); in the assay with K562, 0.122 µM (active); in the assay on MDA-MB-231, 662 nM (active). Further, the GI50 in the assay on LOX IMVI was 0.152 µM (active); in the assay on T47D it was 0.834 µM (active); with TK-10 it was 1.5 µM (inactive); in the assay on SK-MEL-5, 1.09 µM (active); in the assay with SF-295 it was 6.76 µM (inactive); in the assay with MDA-MB-435, 0.845 µM (active). Further, the GI50 with SW-620 was 0.216 µM (active).
Consider `O=[N+]([O-])c1cccc(C2=NOC3CCCC23)c1` (stereo not drawn), for which the GI50 with SNB-75, in the assay on UACC-257, in the assay with SF-268, with RPMI-8226, in the assay with A498 and in the assay on NCI-H522 was > 100 µM (inactive) in each case. The GI50 with M14, in the assay on HOP-62, with A549, in the assay with K562, with TK-10 and in the assay with SK-MEL-5 was > 100 µM (inactive) in each case. The GI50 in the assay on SF-295, in the assay on DLD-1 and in the assay on SW-620 was > 100 µM (inactive) each time.
`Cc1c(-c2ccccc2)c(C#N)c2nnn(C)c(=O)n12`: the GI50 with SNB-75 is 42.8 µM (inactive); in the assay with UACC-257, > 100 µM (inactive); in the assay with SF-268, > 100 µM (inactive); in the assay on DU-145 it was > 100 µM (inactive); with RPMI-8226, > 100 µM (inactive); in the assay on A498 it was 91.6 µM (inactive). For the same compound, the GI50 in the assay with NCI-H522 is > 100 µM (inactive); with M14 it was > 100 µM (inactive); with HOP-62, 44 µM (inactive); in the assay with A549, > 100 µM (inactive); with K562 it was > 100 µM (inactive); in the assay with MDA-MB-231, > 100000 nM (inactive). The GI50 in the assay on LOX IMVI was > 100 µM (inactive); with T47D, > 100 µM (inactive); with TK-10, > 100 µM (inactive); in the assay with SK-MEL-5, > 100 µM (inactive); with SF-295 it was 68.9 µM (inactive); in the assay with MDA-MB-435, > 100 µM (inactive). Besides, the GI50 in the assay on SW-620 is > 100 µM (inactive).
As to `CCOC(=O)C(NC(=O)c1ccccc1)(Nc1ccc(S(=O)(=O)Nc2cc(C)nc(C)n2)cc1)C(F)(F)F` (stereo not drawn), the GI50 is > 100 µM (inactive) with SNB-75; > 100 µM (inactive) with UACC-257; > 100 µM (inactive) in the assay with SF-268; > 100 µM (inactive) in the assay on DU-145; > 100 µM (inactive) in the assay with RPMI-8226; 14.7 µM (inactive) in the assay on A498. Also, the GI50 with NCI-H522 is > 100 µM (inactive); with M14, > 100 µM (inactive); in the assay with HOP-62 it was > 100 µM (inactive); with A549 it was > 100 µM (inactive); in the assay with K562 it was > 100 µM (inactive); in the assay with MDA-MB-231 it was > 100000 nM (inactive). The GI50 in the assay with LOX IMVI, in the assay with T47D, with TK-10, in the assay with SK-MEL-5, in the assay with SF-295 and in the assay with MDA-MB-435 was > 100 µM (inactive) in each case. The GI50 in the assay on SW-620 was 56.1 µM (inactive).
Regarding `CCOC(=O)C12CC1(C(=O)OCC)C1CCC2C1` (stereo not drawn), the GI50 in the assay with UACC-257 was 44.7 µM (inactive); in the assay on SF-268, > 100 µM (inactive); in the assay on RPMI-8226, > 100 µM (inactive); in the assay with A498, > 100 µM (inactive); with M14 it was > 100 µM (inactive); in the assay with HOP-62 it was > 100 µM (inactive). The GI50 with A549 is > 100 µM (inactive); in the assay on K562, 68.5 µM (inactive); with LOX IMVI, > 100 µM (inactive); with TK-10, > 100 µM (inactive); in the assay on SK-MEL-5 it was 54.1 µM (inactive); in the assay with SF-295, > 100 µM (inactive). Moreover, the GI50 in the assay with DLD-1 and in the assay with SW-620 was > 100 µM (inactive) in each case.
For `COc1ccc(/C(=N\NC(=O)NN)C(c2ccc(OC)cc2)C2(O)C(=O)Nc3c(Cl)cc(Cl)cc32)cc1` (stereo not drawn), the GI50 was > 100 µM (inactive) in the assay on SNB-75; > 100 µM (inactive) in the assay on UACC-257; > 100 µM (inactive) with SF-268; 56.8 µM (inactive) in the assay with RPMI-8226; > 100 µM (inactive) in the assay on M14; > 100 µM (inactive) with HOP-62. Besides, the GI50 in the assay on A549 was > 100 µM (inactive); in the assay on LOX IMVI, 99.3 µM (inactive); with TK-10 it was > 100 µM (inactive); with SK-MEL-5 it was > 100 µM (inactive); in the assay with SF-295 it was > 100 µM (inactive); in the assay with DLD-1, > 100 µM (inactive). Further, in the assay with SW-620, the GI50 is > 100 µM (inactive).
On to `COC1/C=C/C(C)C(C(C)C(OC)C(C)CCC(=O)C(C)C(C/C=C/N(C)C=O)OC)OC(=O)/C=C/C=C(\C)CC(OC)C(OC)C2=CC(=O)O[C@@H](C(C)C(OC)CC(OC)/C=C/C(C)C(O)C1)[C@H]2O` (stereo partly drawn), for which the GI50 in the assay with SNB-75 was 0.0268 µM (active); with UACC-257, 0.13 µM (active); in the assay on SF-268, 0.129 µM (active); in the assay on DU-145 it was 0.373 µM (active); in the assay on RPMI-8226, 0.0356 µM (active); in the assay with A498, 0.0723 µM (active). The GI50 was 0.119 µM (active) in the assay on NCI-H522; 0.14 µM (active) in the assay on M14; 0.0705 µM (active) in the assay with HOP-62; 0.15 µM (active) with A549; 0.0379 µM (active) in the assay with K562; 77.3 nM (active) in the assay with MDA-MB-231. The GI50 is 0.0145 µM (active) in the assay with LOX IMVI; 0.208 µM (active) in the assay on T47D; 0.0745 µM (active) in the assay with TK-10; 0.0904 µM (active) in the assay on SK-MEL-5; 0.115 µM (active) in the assay on SF-295; 0.249 µM (active) in the assay with MDA-MB-435. The GI50 in the assay with SW-620 is 0.12 µM (active).
For the compound `COC(=O)C1=C(C)N(NC(=O)c2ccccc2)C2(O)CCCC(=O)C12C` (stereo not drawn), the GI50 with SNB-75 is 63.5 µM (inactive); in the assay with UACC-257, > 100 µM (inactive); with RPMI-8226, > 100 µM (inactive); in the assay with A498 it was > 100 µM (inactive); with NCI-H522 it was > 100 µM (inactive); in the assay on M14, > 100 µM (inactive). In addition, the GI50 with A549, in the assay with LOX IMVI, with TK-10, in the assay on SK-MEL-5, in the assay with SF-295 and in the assay with DLD-1 was > 100 µM (inactive) each time. Further, the GI50 in the assay on SW-620 was > 100 µM (inactive).
For the compound `c1ccc2c3ccn4ccc5c6ccccc6[nH]c5c4c-3nc2c1`, the GI50 was 1.57 µM (inactive) in the assay on SNB-75; 2 µM (inactive) with UACC-257; 1.24 µM (inactive) with SF-268; 1.43 µM (inactive) with DU-145; 0.255 µM (active) with RPMI-8226; 1.63 µM (inactive) with A498. The GI50 with NCI-H522 is 1.46 µM (inactive); with M14, 1.85 µM (inactive); in the assay with HOP-62, 1.31 µM (inactive); with A549, 0.745 µM (active); in the assay on K562 it was 0.201 µM (active); in the assay with MDA-MB-231, 329 nM (active). Further, the GI50 in the assay with LOX IMVI is 0.202 µM (active); in the assay with T47D, 1.15 µM (inactive); in the assay on TK-10 it was 2.62 µM (inactive); in the assay with SK-MEL-5 it was 1.46 µM (inactive); in the assay on SF-295, 1.46 µM (inactive); in the assay on MDA-MB-435, 1.45 µM (inactive). Further, in the assay with SW-620, the GI50 is 0.169 µM (active).
